Numbers after ± are expanded uncertainties.
Assay: xn = mol fraction of the nth substance listed
Conditions: 100 kPa, Liquid; for mass density: Vibrating tube method; for viscosity: Capillary tube (Ostwald / Ubbelohde) method

CC1COC(=O)O1 (centres undefined) [4-methyl-1,3-dioxolan-2-one] + CN1CCCC1=O
Conditions | mass density [kg/m3] | viscosity [mPa·s]
293.15 K, x2 = 0 | 1204.81 ± 1.6 | –
293.15 K, x2 = 0.0523 | 1194.07 ± 1.7 | –
293.15 K, x2 = 0.1021 | 1184.1 ± 1.7 | –
293.15 K, x2 = 0.1995 | 1165.18 ± 1.6 | –
293.15 K, x2 = 0.2987 | 1146.67 ± 1.6 | –
293.15 K, x2 = 0.4003 | 1128.44 ± 1.6 | –
293.15 K, x2 = 0.5164 | 1108.38 ± 1.6 | –
293.15 K, x2 = 0.6011 | 1094.3 ± 1.6 | –
293.15 K, x2 = 0.6989 | 1078.57 ± 1.6 | –
293.15 K, x2 = 0.7989 | 1062.97 ± 1.6 | –
293.15 K, x2 = 0.9003 | 1047.58 ± 1.6 | –
293.15 K, x2 = 0.9506 | 1040.04 ± 1.6 | –
298.15 K, x2 = 0 | 1199.02 ± 1.6 | 2.52 ± 0.052
298.15 K, x2 = 0.0523 | 1188.38 ± 1.7 | –
298.15 K, x2 = 0.1021 | 1178.51 ± 1.6 | –
298.15 K, x2 = 0.114 | – | 2.391 ± 0.05
298.15 K, x2 = 0.1995 | 1159.73 ± 1.6 | –
298.15 K, x2 = 0.2013 | – | 2.294 ± 0.048
298.15 K, x2 = 0.2987 | 1141.4 ± 1.6 | –
298.15 K, x2 = 0.3347 | – | 2.158 ± 0.045
298.15 K, x2 = 0.389 | – | 2.103 ± 0.044
298.15 K, x2 = 0.4003 | 1123.3 ± 1.6 | –
298.15 K, x2 = 0.5 | – | 2.003 ± 0.042
298.15 K, x2 = 0.5164 | 1103.36 ± 1.6 | –
298.15 K, x2 = 0.597 | – | 1.926 ± 0.041
298.15 K, x2 = 0.6011 | 1089.39 ± 1.6 | –
298.15 K, x2 = 0.6989 | 1073.78 ± 1.6 | –
298.15 K, x2 = 0.709 | – | 1.845 ± 0.039
298.15 K, x2 = 0.7891 | – | 1.796 ± 0.038
298.15 K, x2 = 0.7989 | 1058.3 ± 1.6 | –
298.15 K, x2 = 0.8985 | – | 1.732 ± 0.037
298.15 K, x2 = 0.9003 | 1043 ± 1.6 | –
298.15 K, x2 = 0.9506 | 1035.5 ± 1.6 | –
303.15 K, x2 = 0 | 1194 ± 1.6 | 2.27 ± 0.047
303.15 K, x2 = 0.0523 | 1183.42 ± 1.7 | –
303.15 K, x2 = 0.1021 | 1173.58 ± 1.6 | –
303.15 K, x2 = 0.114 | – | 2.157 ± 0.045
303.15 K, x2 = 0.1995 | 1154.87 ± 1.6 | –
303.15 K, x2 = 0.2013 | – | 2.076 ± 0.043
303.15 K, x2 = 0.2987 | 1136.58 ± 1.6 | –
303.15 K, x2 = 0.3347 | – | 1.957 ± 0.041
303.15 K, x2 = 0.389 | – | 1.908 ± 0.04
303.15 K, x2 = 0.4003 | 1118.52 ± 1.6 | –
303.15 K, x2 = 0.5 | – | 1.821 ± 0.038
303.15 K, x2 = 0.5164 | 1098.63 ± 1.6 | –
303.15 K, x2 = 0.597 | – | 1.754 ± 0.037
303.15 K, x2 = 0.6011 | 1084.68 ± 1.6 | –
303.15 K, x2 = 0.6989 | 1069.12 ± 1.6 | –
303.15 K, x2 = 0.709 | – | 1.685 ± 0.036
303.15 K, x2 = 0.7891 | – | 1.641 ± 0.035
303.15 K, x2 = 0.7989 | 1053.68 ± 1.6 | –
303.15 K, x2 = 0.8985 | – | 1.585 ± 0.034
303.15 K, x2 = 0.9003 | 1038.41 ± 1.6 | –
303.15 K, x2 = 0.9506 | 1030.92 ± 1.6 | –
308.15 K, x2 = 0 | 1188.57 ± 1.6 | 2.08 ± 0.043
308.15 K, x2 = 0.0523 | 1178.1 ± 1.6 | –
308.15 K, x2 = 0.1021 | 1168.35 ± 1.6 | –
308.15 K, x2 = 0.114 | – | 1.988 ± 0.042
308.15 K, x2 = 0.1995 | 1149.78 ± 1.6 | –
308.15 K, x2 = 0.2013 | – | 1.916 ± 0.04
308.15 K, x2 = 0.2987 | 1131.63 ± 1.6 | –
308.15 K, x2 = 0.3347 | – | 1.81 ± 0.038
308.15 K, x2 = 0.389 | – | 1.767 ± 0.037
308.15 K, x2 = 0.4003 | 1113.71 ± 1.6 | –
308.15 K, x2 = 0.5 | – | 1.688 ± 0.036
308.15 K, x2 = 0.5164 | 1093.99 ± 1.6 | –
308.15 K, x2 = 0.597 | – | 1.628 ± 0.034
308.15 K, x2 = 0.6011 | 1080.16 ± 1.6 | –
308.15 K, x2 = 0.6989 | 1064.71 ± 1.6 | –
308.15 K, x2 = 0.709 | – | 1.568 ± 0.033
308.15 K, x2 = 0.7891 | – | 1.527 ± 0.032
308.15 K, x2 = 0.7989 | 1049.38 ± 1.6 | –
308.15 K, x2 = 0.8985 | – | 1.475 ± 0.031
308.15 K, x2 = 0.9003 | 1034.2 ± 1.6 | –
308.15 K, x2 = 0.9506 | 1026.76 ± 1.6 | –
313.15 K, x2 = 0 | 1183.11 ± 1.6 | 1.91 ± 0.04
313.15 K, x2 = 0.0523 | 1172.69 ± 1.6 | –
313.15 K, x2 = 0.1021 | 1162.99 ± 1.6 | –
313.15 K, x2 = 0.114 | – | 1.828 ± 0.038
313.15 K, x2 = 0.1995 | 1144.5 ± 1.6 | –
313.15 K, x2 = 0.2013 | – | 1.765 ± 0.037
313.15 K, x2 = 0.2987 | 1126.42 ± 1.6 | –
313.15 K, x2 = 0.3347 | – | 1.673 ± 0.035
313.15 K, x2 = 0.389 | – | 1.636 ± 0.034
313.15 K, x2 = 0.4003 | 1108.58 ± 1.6 | –
313.15 K, x2 = 0.5 | – | 1.568 ± 0.033
313.15 K, x2 = 0.5164 | 1088.95 ± 1.6 | –
313.15 K, x2 = 0.597 | – | 1.516 ± 0.032
313.15 K, x2 = 0.6011 | 1075.18 ± 1.6 | –
313.15 K, x2 = 0.6989 | 1059.78 ± 1.6 | –
313.15 K, x2 = 0.709 | – | 1.461 ± 0.031
313.15 K, x2 = 0.7891 | – | 1.426 ± 0.03
313.15 K, x2 = 0.7989 | 1044.52 ± 1.6 | –
313.15 K, x2 = 0.8985 | – | 1.379 ± 0.029
313.15 K, x2 = 0.9003 | 1029.43 ± 1.6 | –
313.15 K, x2 = 0.9506 | 1022.03 ± 1.6 | –
318.15 K, x2 = 0 | 1177.55 ± 1.6 | 1.75 ± 0.036
318.15 K, x2 = 0.0523 | 1167.21 ± 1.6 | –
318.15 K, x2 = 0.1021 | 1157.58 ± 1.6 | –
318.15 K, x2 = 0.114 | – | 1.682 ± 0.035
318.15 K, x2 = 0.1995 | 1139.21 ± 1.6 | –
318.15 K, x2 = 0.2013 | – | 1.627 ± 0.034
318.15 K, x2 = 0.2987 | 1121.25 ± 1.6 | –
318.15 K, x2 = 0.3347 | – | 1.545 ± 0.032
318.15 K, x2 = 0.389 | – | 1.513 ± 0.032
318.15 K, x2 = 0.4003 | 1103.52 ± 1.6 | –
318.15 K, x2 = 0.5 | – | 1.453 ± 0.031
318.15 K, x2 = 0.5164 | 1084 ± 1.6 | –
318.15 K, x2 = 0.597 | – | 1.407 ± 0.03
318.15 K, x2 = 0.6011 | 1070.31 ± 1.6 | –
318.15 K, x2 = 0.6989 | 1054.99 ± 1.6 | –
318.15 K, x2 = 0.709 | – | 1.359 ± 0.029
318.15 K, x2 = 0.7891 | – | 1.328 ± 0.028
318.15 K, x2 = 0.7989 | 1039.81 ± 1.6 | –
318.15 K, x2 = 0.8985 | – | 1.286 ± 0.027
318.15 K, x2 = 0.9003 | 1024.81 ± 1.6 | –
318.15 K, x2 = 0.9506 | 1017.45 ± 1.6 | –
323.15 K, x2 = 0 | 1171.96 ± 1.6 | 1.62 ± 0.034
323.15 K, x2 = 0.0523 | 1161.72 ± 1.6 | –
323.15 K, x2 = 0.1021 | 1152.17 ± 1.6 | –
323.15 K, x2 = 0.114 | – | 1.56 ± 0.033
323.15 K, x2 = 0.1995 | 1133.96 ± 1.6 | –
323.15 K, x2 = 0.2013 | – | 1.513 ± 0.032
323.15 K, x2 = 0.2987 | 1116.14 ± 1.6 | –
323.15 K, x2 = 0.3347 | – | 1.443 ± 0.03
323.15 K, x2 = 0.389 | – | 1.414 ± 0.03
323.15 K, x2 = 0.4003 | 1098.55 ± 1.6 | –
323.15 K, x2 = 0.5 | – | 1.361 ± 0.029
323.15 K, x2 = 0.5164 | 1079.17 ± 1.6 | –
323.15 K, x2 = 0.597 | – | 1.32 ± 0.028
323.15 K, x2 = 0.6011 | 1065.56 ± 1.6 | –
323.15 K, x2 = 0.6989 | 1050.38 ± 1.6 | –
323.15 K, x2 = 0.709 | – | 1.278 ± 0.027
323.15 K, x2 = 0.7891 | – | 1.25 ± 0.027
323.15 K, x2 = 0.7989 | 1035.3 ± 1.6 | –
323.15 K, x2 = 0.8985 | – | 1.213 ± 0.026
323.15 K, x2 = 0.9003 | 1020.41 ± 1.6 | –
323.15 K, x2 = 0.9506 | 1013.09 ± 1.6 | –

Source: the NIST ThermoML archive (doi:10.1016/j.jct.2015.08.013)
